# Measured values: patent US20130017174A1, “COMPOSITIONS AND METHODS FOR INCREASING HEALTH AND REDUCING PATHOGENIC BACTERIA IN ANIMALS” (The Board of Trustees of the University of Arkansas, priority 2011, published 2013)
# Test system: Salmonella enteritidis
# Assay: In vitro testing: SE recovery from inoculated chick starter feed
# Format: cell-based
# Details: feed with increasing amounts of sodium nitrate (1-1000 ppm), 42° C. for 24 hours, vs control (FIG. 1)
# Experimental: Briefly, 1.25 grams of chick starter feed was measured into 13×100 mm borosilicate tubes and autoclaved. Nitrate was mixed into the feed before autoclaving at concentrations of 1000 ppm, 100 ppm, 10 ppm, or 1 ppm (Sodium Nitrate, Sigma Chemical Co., St. Louis, Mo.).
# The feed also contained 0.1% lactose as a prebiotic. The feed was suspended in 4.5 mL sterile saline and inoculated with 0.5 mL of Salmonella enteriditis (SE) culture containing approximately 10^4 cfu/ml. The tubes were treated with either 0.6 ml of 10^6 cfu/ml of FloraMax-B11® probiotic or saline as a negative control. After administering the treatment, the tubes were agitated and incubated at 42° C. for 24 hours. The tubes then were agitated and the content was serially diluted and plated on Brilliant Green Agar (BGA) containing novobiocin (250 ml) and nalidixic acid (20 μl/ml) to select for SE. Typical SE colonies were counted after 24 hours of incubation.
compound,measurement,value
"O=[N+]([O-])[O-].[Na+] [sodium nitrate, Sodium Nitrate]",recovery of SE,decreased recovery of SE as compared to the control
